In ChEMBL document CHEMBL1150031, “The first selective antagonist for a GABAC receptor” (Bioorg Med Chem Lett, 1996):
Calls of active or inactive are those of the source. The calls are words filed in the database; no cut-off is given here.

Legend:
[1] = target: T1, GABA-C receptor (Homo sapiens) (UniProt P28476+A8MPY1+P24046); experiment: Inhibition of human Gamma-aminobutyric acid type C (GABA-C) receptor, potent antagonist; type: functional
[2] = target: GABA B receptor (Rattus norvegicus, UniProt O88871+Q9Z0U4); experiment: Inhibition of rat hippocampal Gamma-aminobutyric acid type B receptor (weak agonist); type: functional, tissue-based, Hippocampus
[3] = Inhibition of rat brain Gamma-aminobutyric acid A (GABA-A) receptor expressed in oocytes, weak antagonist; type: functional; settings: Oocyte
[4] = target: T1, GABA-C receptor (Homo sapiens); experiment: Inhibition of mammalian Gamma-aminobutyric acid type C (GABA-C) receptor, potent antagonist; type: functional
[5] = target: GABA-A receptor; anion channel (Homo sapiens) (UniProt P14867+P47870+P18507+P28472+P48169+Q99928+Q9UN88+P34903+O00591+O14764+Q8N1C3+P18505+P78334+P47869+P31644+Q16445); experiment: Inhibition of mammalian Gamma-aminobutyric acid A (GABA-A) receptor (inactive); type: protein-complex assay
[6] = target: GABA-B receptor (Homo sapiens) (UniProt Q9UBS5+O75899); experiment: Inhibition of mammalian Gamma-aminobutyric acid type B receptor (Inactive); type: protein-complex assay
[7] = target: T1, GABA-C receptor (Homo sapiens); experiment: Inhibition of mammalian Gamma-aminobutyric acid type C (GABA-C) receptor, partial agonist; type: functional
[8] = target: GABA-A receptor; anion channel; experiment: Inhibition of mammalian Gamma-aminobutyric acid A (GABA-A) receptor, agonist; type: functional

T1 sequence (A8MPY1 whole entry, looked up): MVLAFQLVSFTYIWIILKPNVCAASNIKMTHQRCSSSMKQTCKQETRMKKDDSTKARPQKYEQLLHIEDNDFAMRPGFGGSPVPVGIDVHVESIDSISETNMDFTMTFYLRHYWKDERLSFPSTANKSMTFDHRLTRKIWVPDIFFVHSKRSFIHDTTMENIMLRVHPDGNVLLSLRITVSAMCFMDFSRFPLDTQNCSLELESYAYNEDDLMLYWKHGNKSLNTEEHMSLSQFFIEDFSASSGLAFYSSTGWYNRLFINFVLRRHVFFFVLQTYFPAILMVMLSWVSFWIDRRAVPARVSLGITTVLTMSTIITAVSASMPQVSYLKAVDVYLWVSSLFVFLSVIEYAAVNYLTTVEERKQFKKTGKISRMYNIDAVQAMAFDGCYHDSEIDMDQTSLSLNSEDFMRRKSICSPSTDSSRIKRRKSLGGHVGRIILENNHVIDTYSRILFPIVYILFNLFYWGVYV
T1 sequence (P24046 whole entry, looked up): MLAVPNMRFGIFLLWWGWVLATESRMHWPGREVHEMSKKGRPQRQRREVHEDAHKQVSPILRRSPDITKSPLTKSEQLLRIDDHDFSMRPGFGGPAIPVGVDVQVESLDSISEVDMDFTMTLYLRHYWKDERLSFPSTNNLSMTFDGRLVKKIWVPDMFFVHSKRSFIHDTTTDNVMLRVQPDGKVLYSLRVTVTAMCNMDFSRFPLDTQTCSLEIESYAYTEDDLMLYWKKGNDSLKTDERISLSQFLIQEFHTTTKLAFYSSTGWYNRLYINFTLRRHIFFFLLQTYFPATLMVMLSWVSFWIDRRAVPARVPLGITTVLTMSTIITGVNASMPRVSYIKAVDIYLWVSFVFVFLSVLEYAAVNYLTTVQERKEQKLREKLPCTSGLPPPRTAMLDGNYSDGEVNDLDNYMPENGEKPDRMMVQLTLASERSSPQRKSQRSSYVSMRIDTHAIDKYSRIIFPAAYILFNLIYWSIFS
T1 sequence (P28476 whole entry, looked up): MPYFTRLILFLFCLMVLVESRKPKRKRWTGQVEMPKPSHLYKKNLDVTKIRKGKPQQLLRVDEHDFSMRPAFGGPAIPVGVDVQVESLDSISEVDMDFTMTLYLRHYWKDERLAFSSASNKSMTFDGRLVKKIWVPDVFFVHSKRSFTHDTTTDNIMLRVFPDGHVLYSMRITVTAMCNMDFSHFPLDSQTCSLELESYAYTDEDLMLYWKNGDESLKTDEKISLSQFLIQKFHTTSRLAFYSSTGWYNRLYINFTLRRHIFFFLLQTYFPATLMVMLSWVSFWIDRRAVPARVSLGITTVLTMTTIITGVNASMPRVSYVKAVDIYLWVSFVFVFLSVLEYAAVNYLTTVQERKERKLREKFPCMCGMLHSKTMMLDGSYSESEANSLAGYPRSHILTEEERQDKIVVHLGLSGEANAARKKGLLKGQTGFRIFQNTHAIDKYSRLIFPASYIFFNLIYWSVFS
GABA B receptor, sequence (Q9Z0U4 whole entry): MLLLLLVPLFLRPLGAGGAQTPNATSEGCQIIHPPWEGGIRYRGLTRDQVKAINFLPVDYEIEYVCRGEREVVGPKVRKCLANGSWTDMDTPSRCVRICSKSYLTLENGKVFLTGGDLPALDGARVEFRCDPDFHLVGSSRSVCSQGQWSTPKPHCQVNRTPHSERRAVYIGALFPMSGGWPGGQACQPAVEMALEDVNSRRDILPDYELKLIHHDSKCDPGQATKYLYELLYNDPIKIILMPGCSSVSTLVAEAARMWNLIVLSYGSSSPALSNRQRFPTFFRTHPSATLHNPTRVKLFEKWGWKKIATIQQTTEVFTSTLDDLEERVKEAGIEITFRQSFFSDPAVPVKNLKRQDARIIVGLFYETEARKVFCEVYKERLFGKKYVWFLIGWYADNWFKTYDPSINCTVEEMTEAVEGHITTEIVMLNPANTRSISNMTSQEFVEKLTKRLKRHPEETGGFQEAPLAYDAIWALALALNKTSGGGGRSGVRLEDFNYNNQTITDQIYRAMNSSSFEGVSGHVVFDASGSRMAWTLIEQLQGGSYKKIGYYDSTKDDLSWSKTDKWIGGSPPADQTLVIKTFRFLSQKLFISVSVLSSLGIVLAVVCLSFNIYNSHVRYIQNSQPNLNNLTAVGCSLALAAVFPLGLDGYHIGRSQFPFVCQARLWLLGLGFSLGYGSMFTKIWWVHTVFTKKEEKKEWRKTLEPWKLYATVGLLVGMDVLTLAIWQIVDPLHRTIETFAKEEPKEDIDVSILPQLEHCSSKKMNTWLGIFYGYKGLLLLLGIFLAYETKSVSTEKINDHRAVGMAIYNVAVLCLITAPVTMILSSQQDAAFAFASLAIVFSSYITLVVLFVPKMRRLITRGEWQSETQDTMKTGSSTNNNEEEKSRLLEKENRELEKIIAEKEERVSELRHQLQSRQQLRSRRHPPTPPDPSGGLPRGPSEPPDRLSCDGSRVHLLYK
GABA B receptor, sequence (O88871 whole entry): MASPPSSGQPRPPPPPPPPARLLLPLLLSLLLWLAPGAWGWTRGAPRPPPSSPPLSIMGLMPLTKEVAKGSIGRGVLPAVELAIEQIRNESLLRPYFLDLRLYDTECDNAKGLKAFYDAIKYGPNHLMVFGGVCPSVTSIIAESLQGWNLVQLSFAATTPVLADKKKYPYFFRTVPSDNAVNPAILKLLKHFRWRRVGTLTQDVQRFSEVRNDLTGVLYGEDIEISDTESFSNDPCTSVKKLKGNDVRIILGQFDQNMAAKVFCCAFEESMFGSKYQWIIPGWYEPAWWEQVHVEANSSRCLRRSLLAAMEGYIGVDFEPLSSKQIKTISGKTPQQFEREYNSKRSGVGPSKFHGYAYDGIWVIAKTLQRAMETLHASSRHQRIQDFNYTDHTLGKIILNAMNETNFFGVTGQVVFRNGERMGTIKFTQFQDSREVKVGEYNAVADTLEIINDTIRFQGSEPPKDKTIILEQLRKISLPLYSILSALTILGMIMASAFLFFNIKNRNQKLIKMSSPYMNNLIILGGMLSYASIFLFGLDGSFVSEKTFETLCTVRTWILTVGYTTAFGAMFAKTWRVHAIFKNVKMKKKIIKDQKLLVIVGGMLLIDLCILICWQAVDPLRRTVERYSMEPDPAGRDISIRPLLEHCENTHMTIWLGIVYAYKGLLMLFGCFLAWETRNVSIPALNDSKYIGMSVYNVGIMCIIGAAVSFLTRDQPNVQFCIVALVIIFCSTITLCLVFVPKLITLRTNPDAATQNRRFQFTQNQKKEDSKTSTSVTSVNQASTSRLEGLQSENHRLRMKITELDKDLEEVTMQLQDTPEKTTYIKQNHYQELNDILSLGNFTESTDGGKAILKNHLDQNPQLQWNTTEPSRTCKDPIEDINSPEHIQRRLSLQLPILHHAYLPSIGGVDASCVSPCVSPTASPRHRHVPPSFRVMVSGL

SMILES: CP(=O)(O)C1=CCNCC1
- Kb [1]: 2.1 µM
- EC50 [2]: 500 µM
- Kb [3]: 320 µM

SMILES: CP(=O)(O)CCCN
- Kb [4]: 0.8 µM
- Activity [5]: inactive

SMILES: O=C(O)C1=CCNCC1 [ISOGUVACINE]
- Activity [6]: inactive
- Kb [7]: 99 µM
- EC50 [8]: 310 µM
